Measured values reported in US10864150B2, “Hair treatment process” (KAO CORPORATION, priority 2013, dated 2020).

Experiment: Test Example 1: impact of tension on hair straightening
Conditions: then shampooed
Description: Three samples A-C of frizzy hair (bundles of 2 g Indian frizz hair, untreated, obtained from IHIP, International Hair Importers & Products, NY; see FIG. 1A) were shampooed, rinsed off with water and dried at ambient temperature. Then, an aqueous solution of 10 wt. % glyoxylic acid (pH 1.5, adjusted with NaOH) was applied to the samples A-C at a ratio of hair to solution of 1:1, uniformly distributed with a comb and left on the hair for 15 minutes at 40° C. Then, the samples were dried with a hair drier at a temperature of 90-100° C. for 10 minutes. The temperature was measured by holding an infrared thermometer at a distance of about 20 to 40 cm from the hair and scanning the area where the air stream comes into contact with the hair. The average of at least ten readings is then taken as the temperature. Samples A and B (Reference) were dried in the absence of mechanical tension and serve as reference samples. To sample C, mechanical tension was applied by fixing one end and holding the sample in an elongated state using a round brush. Reference sample B was subsequently treated with a straightening iron at a temperature of 230° C. The samples A-C were rinsed off with water, shampooed, combed and dried at ambient temperature.

With O=CC(=O)O [glyoxylic acid] the “straightening of hair after treatment” value (sample A (reference): 10 wt. % aqueous solution pH 1.5, dried with hair drier 90-100° C. in relaxed state, no mechanical tension) was “does not lead to a substantial straightening”, the “straightening of hair after treatment” value (sample B (reference): 10 wt. % aqueous solution pH 1.5, dried without tension, then straightening iron at 230° C.) was “straightening of the hair” and the “appearance of hair after treatment (straightening, frizz)” value (sample C: 10 wt. % aqueous solution pH 1.5, 15 min at 40° C., dried with hair drier 90-100° C. for 10 min under mechanical tension (round brush), no iron, versus sample A) was “remarkable straightened appearance and reduced frizz”.
